This is an account of results in patent US10383926B2, “Biological markers useful in cancer immunotherapy” (GEMVAX & KAEL CO., LTD., priority 2013, dated 2019).

Series [1] has as its system 26 cytokines in serum. Briefly: Luminex multiplex inflammatory cytokine analysis of patient serum (TeloVac trial). The series is classed as in vivo, human. As for the experimental part:
(§1) The TeloVac trial, was initiated in January 2007 comparing combination therapy with Gemcitabine and Capecitabine (GemCap) therapy with concurrent and sequential chemo-immunotherapy using GV1001 in locally advanced and metastatic pancreatic cancer.
(§2) After this, GV1001 was administered once monthly. GM-CSF was administered separately as an intradermal injection 10-15 minutes before all GV1001 injections at the approximately same site.
Cytokine Results: The Kruskal-Wallis comparison of Arm 2 and Arm 3 baseline (i.e. before treatment) with arm 2 week 7 (GemCap) with Arm 3 week 10 (GemCap and GV1001) serum samples are shown in table 1 below.
Paired analysis was carried out for: • Arm 2 patients at baseline and following 7 weeks of GemCap treatment. • Arm 3 patients at baseline and following 10 weeks of GemCap and GV1001 treatment.

The subject of series [2] is locally advanced and metastatic pancreatic cancer. Briefly: Survival analysis, TeloVac Phase III trial. To be noted: 1062 patients, 52 centres. The series is classed as in vivo, human. The procedure: The TeloVac trial recruited 1062 patients in 52 centres throughout the UK. […] Importantly, biomarkers for an increased survival in response to the vaccine were identified in a subgroup of patients.
as §1, §2

Series [3] concerns advanced pancreatic and pulmonary cancer patients. To be noted: cited from earlier work.
The test system of series [4] is HLA class II molecules. To be noted: cited from earlier work.

Where only a bound is given, the exact number is not on record here.

With “EARPALLTSRLRFIPK (listed as Homo sapiens) [GV1001, 16-mer peptide, fragment of the human telomerase enzyme]”, the anti-inflammatory response entry in series [1] (TeloVac translational research) was “significant anti-inflammatory response”. Further, the “regulation of serum levels of eotaxin or MIP1α” value in series [1] (human, in vivo) is recorded as “did not appear that treatment with GV1001 could regulate”. For the same sequence, the “change of serum cytokine levels, pre-treatment compared to post treatment” value in series [1] (serum, paired analysis) was “this decrease was not evident”. Moreover, the “overall survival versus control group receiving chemotherapy” value in series [2] is “no significant difference in overall survival”. Further, in series [3], the “GV1001-specific T-cell responses, subjects” value was greater than 50% and the toxicity entry was “without clinically important toxicity”. Besides, the HLA binding entry in series [4] was “binds multiple HLA class II molecules”.
